Test results: patent publication US20250082764A1, “DRUG FOR TREATING TRIPLE NEGATIVE BREAST CANCER” (HINOVA PHARMACEUTICALS INC., priority 2022, published 2025)

Key:
Assay type in all cases: cell-based
MDA-MB-453 cells [1] = assay: Inhibition of proliferation of MDA-MB-453 cells by single agents (CCK-8 or CTG); conditions: co-incubation for 7-10 days; for inhibitory effect on the proliferation of MDA-MB-453 cells (in words): single agent
Experimental: Triple negative breast cancer MDA-MB-453 cells in logarithmic growth stage were inoculated into a 96-well plate at a concentration of 4×10^3 cells/well, and then incubated in an incubator at 37° C., 5% CO2, and saturated humidity for 24 h or 48 h. To the negative control well, was added RPMI 1640 cell medium containing 10% fetal bovine serum in the same volume as the drug. After cultured for 24 h or 48 h, to the 96-well plate, were added AR PROTACs compounds 162, 177, 230, 259, 279, 281, 282, 325, 357, 400, ARV-110, ARV-766 and AR inhibitor HC-1119, respectively. The concentrations of compounds 177, 230, 259, 279, 281, 282, 325, 357, 400, ARV-110, and ARV-766 are 0 μM, 0.002 μM, 0.005 μM, 0.014 μM, 0.041 μM, 0.123 μM, 0.370 μM, 1.111μM, 3.333 μM or 10 μM; while the concentrations of HC-1119 are 0 μM, 1.23 μM, 3.70 μM, 11.11 μM, 33.33 μM or 100 μM.
(§1) After addition of the drugs and co-incubation for 7-10 days, 10 μL of CCK-8 was added to each well, and then the plate was further cultured for 2 h. The absorbance value (OD) of each well was measured using a microplate reader at a wavelength of 450 nm. The survival rate was calculated using Prism software, the relative survival rate=(OD value of drug well/OD value of control well)×100%. Alternatively, 100 μL of medium was removed from each well, and then 50 μL of CTG was added. The plate was shaken in the dark for 2 min, allowed to stand for 10 min, and then measured using a microplate reader in Luminescence mode. Prism software was used to calculate the survival rate, the relative survival rate=(the RLU value of drug well/the RLU value of control well)×100%.

MDA-MB-453 cells [2] = assay: Proliferation of MDA-MB-453 cells, AR PROTAC in combination with PI3K inhibitor Idelalisib (Combination Index); conditions: molar ratio of compound to Idelalisib 1:270-1:3.333; 7-10 days; synergistic when CI<1
Experimental: (§2) Triple negative breast cancer MDA-MB-453 cells in logarithmic growth stage were inoculated into a 96-well plate at a concentration of 4×10^3 cells/well, and then incubated in an incubator at 37° C., 5% CO2, and saturated humidity for 24 h. To the negative control wells, were added RPMI 1640 cell culture medium containing 10% fetal bovine serum in the same volume as the drug. After cultured for 24 h, to the 96-well plate, were sequentially added AR PROTACs compounds 279, 281, 282, ARV-110, ARV-766 and PI3K inhibitor Idelalisib, respectively.
as §1, with “adding” for “addition of”, “co-incubating” for “co-incubation”

MDA-MB-453 cells [3] = assay: Proliferation of MDA-MB-453 cells, AR PROTAC in combination with PI3K inhibitor Duvelisib (Combination Index); conditions: molar ratio of compound to Duvelisib 1:30-1:1.111; 7-10 days; synergistic when CI<1
Experimental: as §2, with “ARV-110” for “ARV-110, ARV-766”, “Duvelisib,” for “Idelalisib,”
as §1, with “adding” for “addition of”, “co-incubating” for “co-incubation”

MDA-MB-453 cells [4] = assay: Proliferation of MDA-MB-453 cells, AR PROTAC in combination with chemotherapeutic drug Paclitaxel (Combination Index); conditions: molar ratio of compound to Paclitaxel 20:1-5000:1; 7 days; synergistic when CI<1
Experimental: as §2, with “ARV-110” for “ARV-110, ARV-766”, “chemotherapeutic drug Paclitaxel,” for “PI3K inhibitor Idelalisib,”
as §1, with “adding” for “addition of”, “co-incubating” for “co-incubation”, “7” for “7-10”

MDA-MB-453 cells [5] = assay: Proliferation of MDA-MB-453 cells, AR PROTAC in combination with PI3K inhibitor Alpelisib (Combination Index); conditions: molar ratio of compound to Alpelisib 1:27-9:1; 7 days; synergistic when CI<1
Experimental: as §2, with “Alpelisib,” for “Idelalisib,”
as §1, with “7” for “7-10”

Structure (SMILES)	inhibitory effect on the proliferation of MDA-MB-453 cells (in words) (MDA-MB-453 cells [1])	effect of drug combination with Idelalisib on inhibiting the proliferation of MDA-MB-453 cells (MDA-MB-453 cells [2])	effect of drug combination with Duvelisib on inhibiting the proliferation of MDA-MB-453 cells (MDA-MB-453 cells [3])	effect of drug combination with Paclitaxel on inhibiting the proliferation of MDA-MB-453 cells (MDA-MB-453 cells [4])	effect of drug combination with Alpelisib on inhibiting the proliferation of MDA-MB-453 cells (MDA-MB-453 cells [5])	IC50 (MDA-MB-453 cells [1]; Homo sapiens, MDA-MB-453, CCK-8 or CTG readout, read-out: IC50 values against MDA-MB-453 cells) [µM]
N#Cc1ccc(O[C@H]2CC[C@H](NC(=O)c3ccc(N4CCC(CN5CCN(c6cc7c(cc6F)C(=O)N(C6CCC(=O)NC6=O)C7=O)CC5)CC4)nn3)CC2)cc1Cl (stereo partly shown) [ARV-110, reference compound]	inhibit the proliferation of MDA-MB-453 cells to varying degrees	synergistic effect	synergistic effect	synergistic effect	synergistic effect	–
COc1cc(O[C@H]2C(C)(C)[C@H](NC(=O)c3ccc(N4CCC(CN5CCN(c6ccc(C(=O)N[C@H]7CCC(=O)NC7=O)c(F)c6)CC5)CC4)cc3)C2(C)C)ccc1C#N [ARV-766, reference compound]	inhibit the proliferation of MDA-MB-453 cells to varying degrees	synergistic effect	–	–	synergistic effect	–
N#Cc1ccc(O[C@H]2CC[C@H](NC(=O)c3cnc(N4C[C@@H]5[C@@H](CN6CCN(c7ccc8c(c7)C(=O)N(C7CCC(=O)NC7=O)C8=O)CC6)[C@@H]5C4)cn3)CC2)cc1Cl (stereo partly shown) [Compound 177]	inhibit the proliferation of MDA-MB-453 cells to varying degrees	–	–	–	–	–
N#Cc1ccc(O[C@H]2CC[C@H](NC(=O)c3ccc(N4CCC(CN5CCC6(CC5)CN(c5ccc7c(c5)C(=O)N(C5CCC(=O)NC5=O)C7=O)C6)CC4)nn3)CC2)cc1Cl (stereo partly shown) [Compound 230]	inhibit the proliferation of MDA-MB-453 cells to varying degrees	–	–	–	–	–
N#Cc1ccc(O[C@H]2CC[C@H](NC(=O)c3ccc(N4CC5CN(CC6CCN(c7cc8c(cc7F)C(=O)N(C7CCC(=O)NC7=O)C8=O)CC6)CC5C4)nn3)CC2)cc1Cl (stereo partly shown) [Compound 259]	inhibit the proliferation of MDA-MB-453 cells to varying degrees	–	–	–	–	–
N#Cc1ccc(O[C@H]2CC[C@H](NC(=O)c3cnc(N4CCC(CN5CCC6(CC5)CN(c5ccc7c(c5)C(=O)N(C5CCC(=O)NC5=O)C7=O)C6)CC4)nn3)CC2)cc1Cl (stereo partly shown) [Compound 279]	inhibit the proliferation of MDA-MB-453 cells to varying degrees	synergistic effect	synergistic effect	synergistic effect	synergistic effect	–
N#Cc1ccc(O[C@H]2CC[C@H](NC(=O)c3ccc(N4CCC(N5CCC6(CC5)CN(c5ccc7c(c5)C(=O)N(C5CCC(=O)NC5=O)C7=O)C6)CC4)nn3)CC2)cc1Cl (stereo partly shown) [Compound 281]	inhibit the proliferation of MDA-MB-453 cells to varying degrees	synergistic effect	synergistic effect	synergistic effect	synergistic effect	–
N#Cc1ccc(O[C@H]2CC[C@H](NC(=O)c3ccc(N4CC5(CCN(CC6CCN(c7ccc8c(c7)C(=O)N(C7CCC(=O)NC7=O)C8=O)CC6)CC5)C4)nn3)CC2)cc1Cl (stereo partly shown) [Compound 282]	inhibit the proliferation of MDA-MB-453 cells to varying degrees	synergistic effect	synergistic effect	synergistic effect	synergistic effect	–
CC1(C)[C@H](Oc2ccc(C#N)c(Cl)c2)C(C)(C)[C@H]1N1Cc2nc(C#C[C@H]3CC[C@H](N4CCN(c5ccc6c(c5)C(=O)N(C5CCC(=O)NC5=O)C6=O)CC4)CC3)ccc2C1=O (stereo partly shown) [Compound 325]	inhibit the proliferation of MDA-MB-453 cells to varying degrees	–	–	–	–	–
CC1(C)[C@H](Oc2ccc(C#N)c(Cl)c2)C(C)(C)[C@H]1N1Cc2nc(C#C[C@H]3C[C@H](N4CCN(c5cc6c(cc5F)C(=O)N(C5CCC(=O)NC5=O)C6=O)CC4)C3)ccc2C1=O (stereo partly shown) [Compound 357]	inhibit the proliferation of MDA-MB-453 cells to varying degrees	–	–	–	–	≤ 2
COc1cc(O[C@H]2C(C)(C)[C@H](N3Cc4nc(C#C[C@H]5CC[C@H](N6CCN(c7ccc8c(c7)C(=O)N(C7CCC(=O)NC7=O)C8=O)CC6)CC5)ccc4C3=O)C2(C)C)ccc1C#N (stereo partly shown) [Compound 400]	inhibit the proliferation of MDA-MB-453 cells to varying degrees	–	–	–	–	–
[2H]C([2H])([2H])NC(=O)c1ccc(N2C(=S)N(c3ccc(C#N)c(C(F)(F)F)c3)C(=O)C2(C)C)cc1F [HC-1119, reference compound]	weak inhibitory effect	–	–	–	–	–
